“And” between values parts separate entries of the source, which are not always exact repeats. Identical values can stand only once. Like-named read-outs stand apart in the source and are kept apart here.
Experiments:
[1] = tested on: P. falciparum Dd2-2D4; assay: P. falciparum asexual blood stage (ABS) growth assay, SYBR Green, 72 h, wild-type parasites; assay type: cell-based, Plasmodium falciparum; details: wildtype (Dd2-2D4); 10 μM
[2] = biological target: HsProRS (Homo sapiens, UniProt P07814); assay: TR-FRET ligand displacement assay with tracer MAT379 (CoraFluor-1-Halo and anti-His6 antibody formats); assay type: binding; set-up: made in house; host or cells: E. coli SoluBL-21; details: for TR-FRET dose-response, normalized signal (SI Fig 11): individual replicates
HsProRS, sequence (P07814 996-1512): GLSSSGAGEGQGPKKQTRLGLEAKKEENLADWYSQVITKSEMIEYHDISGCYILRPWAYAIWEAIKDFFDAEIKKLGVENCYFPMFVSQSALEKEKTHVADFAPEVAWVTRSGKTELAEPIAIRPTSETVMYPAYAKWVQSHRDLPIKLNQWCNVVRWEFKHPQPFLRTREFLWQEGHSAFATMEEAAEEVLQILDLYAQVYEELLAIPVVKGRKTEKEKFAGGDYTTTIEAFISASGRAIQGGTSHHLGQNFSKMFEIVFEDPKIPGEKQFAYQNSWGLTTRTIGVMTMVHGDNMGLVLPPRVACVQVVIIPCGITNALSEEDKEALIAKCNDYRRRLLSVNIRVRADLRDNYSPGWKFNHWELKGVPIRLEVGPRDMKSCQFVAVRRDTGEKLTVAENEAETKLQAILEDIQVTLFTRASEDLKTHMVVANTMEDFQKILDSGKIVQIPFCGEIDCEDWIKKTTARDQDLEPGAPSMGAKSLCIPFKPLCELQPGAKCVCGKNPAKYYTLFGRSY

[3] = biological target: T1, PfcProRS (Plasmodium falciparum, UniProt Q8I5R7); assay type: binding; details: for dose-response signal (normalized), SI Fig 8: single replicates
T1 construct: made in house; host or cells: E. coli SoluBL-21
T1 sequence (Q8I5R7 249-746): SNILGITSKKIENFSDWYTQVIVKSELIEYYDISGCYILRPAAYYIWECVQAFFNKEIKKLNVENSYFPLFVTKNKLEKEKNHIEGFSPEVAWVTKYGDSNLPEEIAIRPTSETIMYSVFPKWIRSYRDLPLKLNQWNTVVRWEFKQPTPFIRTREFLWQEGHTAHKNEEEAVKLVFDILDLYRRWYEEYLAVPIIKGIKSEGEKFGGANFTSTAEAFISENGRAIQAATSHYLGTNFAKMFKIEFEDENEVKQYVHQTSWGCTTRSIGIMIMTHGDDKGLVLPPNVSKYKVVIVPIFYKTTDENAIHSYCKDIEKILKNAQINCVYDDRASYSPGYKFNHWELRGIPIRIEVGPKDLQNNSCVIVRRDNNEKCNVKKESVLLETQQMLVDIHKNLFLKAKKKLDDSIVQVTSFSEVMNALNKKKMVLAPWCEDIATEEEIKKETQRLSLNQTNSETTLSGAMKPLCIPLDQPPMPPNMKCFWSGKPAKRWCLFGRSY

C[C@@H]1CCC[C@H](C)N1C(=O)Nc1nccnc1C(=O)NC1Cc2ccccc2C1 [compound 19]
% signal at 10 μM, wildtype (Dd2-2D4) [1]: 67.3%
IC50 [2]: > 10000 nM
Kd ([2]; HsProRS (KD [nM]) + 100 μM proline mean, + 100 μM proline): 1320 nM
normalized TR-FRET ligand displacement signal, dose-response replicates (SI Fig 6) ([2]; Log[inhibitor] (M) -5.000): 6.53E-01 and 6.39E-01 and 5.91E-01
TR-FRET dose-response, normalized signal (SI Fig 11) ([2]; Log[inhibitor] (M) -5.000): 8.15E-01 and 7.82E-01 and 8.24E-01
normalized TR-FRET ligand displacement signal, dose-response replicates (SI Fig 6) ([2]; Log[inhibitor] (M) -5.301): 8.82E-01 and 7.60E-01 and 7.73E-01
TR-FRET dose-response, normalized signal (SI Fig 11) ([2]; Log[inhibitor] (M) -5.301): 9.03E-01 and 8.79E-01 and 9.19E-01
normalized TR-FRET ligand displacement signal, dose-response replicates (SI Fig 6) ([2]; Log[inhibitor] (M) -5.601): 8.80E-01 (2×) and 8.74E-01
TR-FRET dose-response, normalized signal (SI Fig 11) ([2]; Log[inhibitor] (M) -5.602): 9.30E-01 and 1.01E+00 and 9.11E-01
normalized TR-FRET ligand displacement signal, dose-response replicates (SI Fig 6) ([2]; Log[inhibitor] (M) -5.904): 9.78E-01 and 8.58E-01 and 8.56E-01
TR-FRET dose-response, normalized signal (SI Fig 11) ([2]; Log[inhibitor] (M) -5.904): 9.97E-01 and 1.07E+00 and 9.73E-01
TR-FRET dose-response, normalized signal (SI Fig 11) ([2]; Log[inhibitor] (M) -6.205): 1.07E+00 and 9.89E-01 and 1.03E+00
normalized TR-FRET ligand displacement signal, dose-response replicates (SI Fig 6) ([2]; Log[inhibitor] (M) -6.208): 1.01E+00 and 9.70E-01 and 9.45E-01
TR-FRET dose-response, normalized signal (SI Fig 11) ([2]; Log[inhibitor] (M) -6.506): 1.02E+00 and 1.05E+00 and 9.88E-01
normalized TR-FRET ligand displacement signal, dose-response replicates (SI Fig 6) ([2]; Log[inhibitor] (M) -6.509): 9.25E-01 and 1.05E+00 and 8.66E-01
normalized TR-FRET ligand displacement signal, dose-response replicates (SI Fig 6) ([2]; Log[inhibitor] (M) -6.796): 1.10E+00 and 9.97E-01 and 1.01E+00
TR-FRET dose-response, normalized signal (SI Fig 11) ([2]; Log[inhibitor] (M) -6.796): 9.68E-01 and 1.04E+00 and 9.56E-01
TR-FRET dose-response, normalized signal (SI Fig 11) ([2]; Log[inhibitor] (M) -7.097): 1.08E+00 (2×) and 9.97E-01
normalized TR-FRET ligand displacement signal, dose-response replicates (SI Fig 6) ([2]; Log[inhibitor] (M) -7.108): 1.04E+00 (2×) and 1.01E+00
TR-FRET dose-response, normalized signal (SI Fig 11) ([2]; Log[inhibitor] (M) -7.407): 1.09E+00 and 9.94E-01 and 1.12E+00
normalized TR-FRET ligand displacement signal, dose-response replicates (SI Fig 6) ([2]; Log[inhibitor] (M) -7.409): 9.88E-01 and 9.12E-01 and 1.00E+00
TR-FRET dose-response, normalized signal (SI Fig 11) ([2]; Log[inhibitor] (M) -7.708): 1.07E+00 and 1.00E+00 and 1.08E+00
normalized TR-FRET ligand displacement signal, dose-response replicates (SI Fig 6) ([2]; Log[inhibitor] (M) -7.710): 9.99E-01 and 1.02E+00 and 9.53E-01
normalized TR-FRET ligand displacement signal, dose-response replicates (SI Fig 6) ([2]; Log[inhibitor] (M) -8.000): 9.74E-01 and 8.92E-01 and 8.64E-01
TR-FRET dose-response, normalized signal (SI Fig 11) ([2]; Log[inhibitor] (M) -8.018): 1.06E+00 and 1.03E+00 and 1.01E+00
normalized TR-FRET ligand displacement signal, dose-response replicates (SI Fig 6) ([2]; Log[inhibitor] (M) -8.301): 9.68E-01 and 9.13E-01 and 9.38E-01
TR-FRET dose-response, normalized signal (SI Fig 11) ([2]; Log[inhibitor] (M) -8.319): 9.44E-01 and 9.92E-01 and 9.43E-01
normalized TR-FRET ligand displacement signal, dose-response replicates (SI Fig 6) ([2]; Log[inhibitor] (M) -8.602): 9.46E-01 and 9.29E-01 and 1.00E+00
TR-FRET dose-response, normalized signal (SI Fig 11) ([2]; Log[inhibitor] (M) -8.620): 1.03E+00 and 1.01E+00 and 7.25E-01
TR-FRET dose-response, normalized signal (SI Fig 11) ([2]; Log[inhibitor] (M) -8.921): 1.02E+00 and 9.26E-01 and 9.67E-01
normalized TR-FRET ligand displacement signal, dose-response replicates (SI Fig 6) ([2]; Log[inhibitor] (M) -9.000): 9.21E-01 and 9.72E-01 and 9.38E-01
TR-FRET dose-response, normalized signal (SI Fig 11) ([2]; Log[inhibitor] (M) -9.097): 9.79E-01 and 1.10E+00 and 1.04E+00
normalized TR-FRET ligand displacement signal, dose-response replicates (SI Fig 6) ([2]; Log[inhibitor] (M) -9.301): 8.73E-01 and 8.54E-01 and 9.42E-01
HsProRS % signal at 10 μM ([2]; no added proline/ATP (-), 10 μM): 80.7%
dose-response signal (normalized), SI Fig 8 ([3]; Log[inhibitor] (M) -5.000): 3.96E-01 and 1.71E-01 and 2.62E-01
dose-response signal (normalized), SI Fig 8 ([3]; Log[inhibitor] (M) -5.301): 5.52E-01 and 5.02E-01 and 5.09E-01
dose-response signal (normalized), SI Fig 8 ([3]; Log[inhibitor] (M) -5.601): 8.00E-01 and 7.91E-01 and 8.42E-01
dose-response signal (normalized), SI Fig 8 ([3]; Log[inhibitor] (M) -5.904): 7.54E-01 and 9.47E-01 and 8.47E-01
dose-response signal (normalized), SI Fig 8 ([3]; Log[inhibitor] (M) -6.208): 1.02E+00 and 9.13E-01 and 1.08E+00
dose-response signal (normalized), SI Fig 8 ([3]; Log[inhibitor] (M) -6.509): 9.59E-01 and 1.03E+00 and 9.76E-01
dose-response signal (normalized), SI Fig 8 ([3]; Log[inhibitor] (M) -6.796): 1.09E+00 and 1.00E+00 and 1.08E+00
dose-response signal (normalized), SI Fig 8 ([3]; Log[inhibitor] (M) -7.108): 9.66E-01 and 9.00E-01 and 9.04E-01
dose-response signal (normalized), SI Fig 8 ([3]; Log[inhibitor] (M) -7.409): 9.53E-01 and 1.01E+00 and 9.35E-01
dose-response signal (normalized), SI Fig 8 ([3]; Log[inhibitor] (M) -7.710): 1.09E+00 and 9.53E-01 and 1.01E+00
dose-response signal (normalized), SI Fig 8 ([3]; Log[inhibitor] (M) -8.000): 1.12E+00 and 1.07E+00 and 9.69E-01
dose-response signal (normalized), SI Fig 8 ([3]; Log[inhibitor] (M) -8.301): 1.02E+00 (2×) and 1.14E+00
dose-response signal (normalized), SI Fig 8 ([3]; Log[inhibitor] (M) -8.602): 1.07E+00 and 8.94E-01 and 1.04E+00
dose-response signal (normalized), SI Fig 8 ([3]; Log[inhibitor] (M) -9.000): 1.15E+00 and 8.96E-01 and 9.87E-01
dose-response signal (normalized), SI Fig 8 ([3]; Log[inhibitor] (M) -9.301): 8.48E-01 and 9.64E-01 and 1.02E+00
PfcProRS -- best Kd ([3]; SI Fig 16a, values on -log scale): 5.928

Reference: publication PMC9403976, “Elucidating the path to Plasmodium prolyl-tRNA synthetase inhibitors that overcome halofuginone resistance” (Nature Communications, 2022)
